Patent US8008329B2 (Dong Wha Pharmaceutical Co., Ltd., priority 2008, dated 2011)
Marks after values point to notes of the source that are not given here.

Test system: osteoclast differentiation
Assay: Osteoclast differentiation in co-culture of mouse bone marrow cells and ST2 cells, TRAP staining (Examples 8-9)
Assay type: cell-based
Details: for % number of osteoclast (vs. solvent control group): 0.1 μM each, day 7; for activity at 0.1 µM: Mus musculus, Osteoclast, 168 h, Individual treatment (compounds), day 7, read-out: % number of osteoclast (vs. solvent control group)
Experimental: The differentiation of osteoclast from mouse bone marrow cells was induced by using co-culture system, and inhibitory effect of the drug on osteoclast differentiation was evaluated by treatment of single or combination formulation. Co-culture was performed using mouse bone marrow cells and ST cells of bone marrow-derived stromal cell.
Femora and tibia were aseptically ectomized from 6˜8 week-old male ddY mice to harvest bone marrow cells by a general method using a syringe. The red blood cells were removed from the bone marrow cells, followed by centrifugation. The bone marrow cells were suspended in α-MEM medium supplemented with 10% fetal bovine serum, and the numbers of the eukaryotic cells in the harvested bone marrow cells were counted and then immediately used for a co-culture system.
ST2 cells (RIKEN Cell Bank, Tsukuba, Japan) were cultured in α-MEM medium supplemented with 10% fetal bovine serum until confluent. Then, these cells were diluted to a desired cell number, and used for the experiment.
The bone marrow cells (1×10^5 cells/well) and ST2 cells (3,000 cells/well) prepared in the above were plated in a 96-well plate using α-MEM medium supplemented with 10% fetal bovine serum. At this time, differentiation factors, 1α,25-dihydroxyvitamin D3 (10^−8 M, hereinbelow, referred to as vitamin D3) and dexamethasone (10^−8 M), were co-added to the medium to induce osteoclast differentiation. The medium was replaced with fresh media containing the differentiation factors every 2 to 3 days.
After 7 days, when multinucleated osteoclasts were observed, the medium was removed from the wells, and then the cells were fixed with PBS containing 10% Formalin. Tartrate-Resistant Acid Phosphatase (hereinbelow, referred to as TRAP) was used as a marker to measure the mature osteoclast in consideration of its characteristics showing a positive reaction to a TRAP staining solution. The TRAP staining solution was prepared in such the manner that a substrate, naphtol AS-MS phosphate and a coloring agent (Fast Red Violet LB salt) were dissolved in N,N-dimethylformamide. A 0.1 N NaHCO3 buffer solution containing 50 mM tartaric acid was added thereto, and the mixture was stored at a refrigerator prior to use as a staining solution. The osteoclasts with 6-7 or more nuclei showing a TRAP-positive reaction were counted under a microscope.
Alendronic acid was dissolved in distilled water at a concentration of 0.1 mM, and benzamidine derivatives were dissolved in DMSO at a concentration of 0.1 mM. All of them were diluted 1,000 fold with the differentiation media to a final concentration of 0.1 μM, respectively. In this connection, a control group was maintained in 0.1% DMSO.
As the above described, the sample substances and cells, which were diluted to the desired concentrations, were plated in 96-well plate, and co-cultured. On days 3 and 5 of culture, the media were replaced with fresh differentiation media containing the sample substances. On day 7 of culture, TRAP staining was performed to count the mature multinucleated osteoclast that was formed by differentiation. The mature osteoclasts with 6 or more nuclei were counted under a microscope. The results were expressed as a percentage (%) of the number of mature osteoclast observed in each experimental group, when the number of mature osteoclast in the control group (solvent only) was regarded as 100%. The experiment was performed with 4 wells per experimental group (n=4), and the results were expressed as mean value±standard deviation. In addition, the experiment was repeated at least two times, and Student t-test was applied for significant difference between experimental groups.
The experiment was performed in the same manner as in Example 8 to evaluate the effect of individual or combination treatment of risedronic acid and benzamidine derivatives of Formula 1 on osteoclast differentiation, except using 0.1 μM risedronic acid instead of 0.1 μM alendronic acid. […]

[1] = Combination treatment (alendronic acid + compounds)
[2] = Combination treatment (risedronic acid + compounds)

CCc1sc(NC(=O)c2cccnc2)nc1-c1ccc(OCCCCCOc2ccc(C(=N)NO)cc2)cc1 [Compound 101, N-hydroxy-4-{5-[4-(5-ethyl-2-(3-pyridylcarbonyl)amino-1,3-thiazol-4-yl)phenoxy]pentyloxy}-benzamidine]
% number of osteoclast (vs. solvent control group) [1]: 24 ± 3.2^ab %
% number of osteoclast (vs. solvent control group) [2]: 18 ± 2.8^ac %
activity at 0.1 µM: 50 ± 5.9%

N=C(NO)c1ccc(OCCCCCOc2ccc(-c3nc(N4CCOCC4)sc3CN3CCOCC3)cc2)cc1 [Compound 336, N-hydroxy-4-{5-[4-(2-morpholin-4-yl-5-morpholin-4-ylmethyl-thiazol-4-yl)-phenoxy]-pentyloxy}-benzamidine]
% number of osteoclast (vs. solvent control group) [1]: 22 ± 3.2^ab %
% number of osteoclast (vs. solvent control group) [2]: 16 ± 3.0^ac %
activity at 0.1 µM: 52 ± 4%

Cc1nc(-c2ccc(OCCCCCOc3ccc(C(=N)NO)cc3)cc2)c(CNCC(C)C)s1 [Compound 299, N-hydroxy-4-(5-{4-[5-(isobutylamino-methyl)-2-methyl-thiazol-4-yl]-phenoxy}-pentyloxy)-benzamidine]
% number of osteoclast (vs. solvent control group) [1]: 14 ± 2.9^ab %
% number of osteoclast (vs. solvent control group) [2]: 11 ± 6.0^ac %
activity at 0.1 µM: 40 ± 6.9%

CCCCc1sc(NC)nc1-c1ccc(OCCCCCOc2ccc(C(=N)NO)cc2)cc1 [Compound 105, N-hydroxy-4-{5-[4-(5-butyl-2-methylamino-1,3-thiazol-4-yl)phenoxy]pentyloxy}-benzamidine]
% number of osteoclast (vs. solvent control group) [1]: 42 ± 3.0^b %
% number of osteoclast (vs. solvent control group) [2]: 41 ± 8.8^ac %
activity at 0.1 µM: 87 ± 11%

N=C(NO)c1ccc(OCCCCCOc2ccc(-c3nc(-c4cccnc4)sc3Cc3ccccc3)cc2)cc1 [Compound 41, N-hydroxy-4-{5-[4-(5-benzyl-2-pyridin-3-yl-1,3-thiazol-4-yl)phenoxy]pentyloxy}-benzamidine]
% number of osteoclast (vs. solvent control group) [1]: 29 ± 5.0^b %
% number of osteoclast (vs. solvent control group) [2]: 31 ± 2.6^c %
activity at 0.1 µM: 31 ± 9.4%

COCCNCc1sc(N(C)CCN2CCOCC2)nc1-c1ccc(OCCCCCOc2ccc(C(=N)NO)cc2)cc1 [Compound 318, N-hydroxy-4-[5-(4-{5-[(2-methoxy-ethylamino) -methyl]-2-[methyl-(2-morpholin-4-yl-ethyl)-amino]-thiazol-4-yl}-phenoxy) -pentyloxy]-benzamidine]
% number of osteoclast (vs. solvent control group) [1]: 27 ± 3.0^ab %
% number of osteoclast (vs. solvent control group) [2]: 12 ± 1.8^ac %
activity at 0.1 µM: 43 ± 3.7%

Cc1nc(-c2ccc(OCCCCCOc3ccc(C(=N)NO)cc3)cc2)c(C(=O)NCCCn2ccnc2)s1 [Compound 284, N-hydroxy-4-{5-[4-(5-{3-imidazol-1-yl-propylcarbamoyl}-2-methyl-thiazol-4-yl)-phenoxy]-pentyloxy}-benzamidine]
% number of osteoclast (vs. solvent control group) [1]: 36 ± 5.0^ab %
% number of osteoclast (vs. solvent control group) [2]: 19 ± 5.8^ac %
activity at 0.1 µM: 73 ± 7.7%

Cc1sc(N(C)Cc2ccccc2)nc1-c1ccc(OCCCCCOc2ccc(C(=N)NO)cc2)cc1 [Compound 125, N-hydroxy-4-{5-(4-[2-(benzyl-methyl-amino)-5-methyl-1,3-thiazol-4-yl]phenoxy)pentyloxy}-benzamidine]
% number of osteoclast (vs. solvent control group) [1]: 43 ± 3.3^ab %
% number of osteoclast (vs. solvent control group) [2]: 21 ± 9.0^ac %
activity at 0.1 µM: 66 ± 4.4%

Cc1nc(-c2ccc(OCCCCCOc3ccc(C(=N)NO)cc3)cc2)c(CCN(CCO)CCO)s1 [Compound 225, N-hydroxy-4-{5-[4-(5-{2-[bis-(2-hydroxy-ethyl)-amino]-ethyl}-2-methyl-thiazol-4-yl)-phenoxy]-pentyloxy}-benzamidine]
% number of osteoclast (vs. solvent control group) [1]: 50 ± 4.8^ab %
% number of osteoclast (vs. solvent control group) [2]: 48 ± 4.9^ac %
activity at 0.1 µM: 70 ± 7.1%

Cc1nc(-c2ccc(OCCCCCOc3ccc(C(=N)NO)cc3)cc2)c(Cn2ccnc2)s1 [Compound 305, N-hydroxy-4-{5-[4-(5-imidazol-1-ylmethyl-2-methyl-thiazol-4-yl)-phenoxy]-pentyloxy}-benzamidine]
% number of osteoclast (vs. solvent control group) [1]: 15 ± 4.8^ab %
% number of osteoclast (vs. solvent control group) [2]: 11 ± 4.1^ac %
activity at 0.1 µM: 58 ± 6.1%

CCc1sc(N2CCCCC2)nc1-c1ccc(OCCCCCOc2ccc(C(=N)NO)cc2)cc1 [Compound 166, N-hydroxy-4-{5-[4-(5-ethyl-2-piperidino-1,3-thiazol-4-yl)phenoxy]pentyloxy}-benzamidine]
% number of osteoclast (vs. solvent control group) [1]: 43 ± 9.4^ab %
% number of osteoclast (vs. solvent control group) [2]: 35 ± 3.9^ac %
activity at 0.1 µM: 73 ± 4.4%

CCCNc1nc(-c2ccc(OCCCCCOc3ccc(C(=N)NO)cc3)cc2)c(CC)s1 [Compound 98, N-hydroxy-4-{5-[4-(5-ethyl-2-propylamino-1,3-thiazol-4-yl)phenoxy]pentyloxy}-benzamidine]
% number of osteoclast (vs. solvent control group) [1]: 29 ± 1.6^ab %
% number of osteoclast (vs. solvent control group) [2]: 11 ± 3.2^ac %
activity at 0.1 µM: 47 ± 3.2%

Cc1nc(-c2ccc(OCCCCCOc3ccc(C(=N)NO)cc3)cc2)c(CCN2CC(C)OC(C)C2)s1 (stereo not drawn) [Compound 227, N-hydroxy-4-[5-(4-{5-[2-(2,6-dimethyl-morpholin-4-yl)-ethyl]-2-methyl-thiazol-4-yl}-phenoxy)-pentyloxy]-benzamidine]
% number of osteoclast (vs. solvent control group) [1]: 24 ± 5.0^ab %
% number of osteoclast (vs. solvent control group) [2]: 17 ± 4.4^ac %
activity at 0.1 µM: 42 ± 4.6%

Cc1nc(-c2ccc(OCCCCCOc3ccc(C(=N)NO)cc3)cc2)c(N)s1 [Compound 331, N-hydroxy-4-{5-[4-(5-amino-2-methyl-thiazol-4-yl)-phenoxy]-pentyloxy}-benzamidine]
% number of osteoclast (vs. solvent control group) [1]: 18 ± 4.6^ab %
% number of osteoclast (vs. solvent control group) [2]: 7 ± 1.2^ac %
activity at 0.1 µM: 43 ± 2.7%

CCc1sc(NCCOC)nc1-c1ccc(OCCCCCOc2ccc(C(=N)NO)cc2)cc1 [Compound 102, N-hydroxy-4-{5-[4-(5-ethyl-2-(2-methoxyethyl)amino-1,3-thiazol-4-yl)phenoxy]pentyloxy}-benzamidine]
% number of osteoclast (vs. solvent control group) [1]: 37 ± 3.6^b %
% number of osteoclast (vs. solvent control group) [2]: 21 ± 2.6^ac %
activity at 0.1 µM: 47 ± 4%

Cc1nc(-c2ccc(OCCCOc3ccc(C(=N)NO)cc3)cc2)c(C(C)C)s1 [Compound 193, N-hydroxy-4-{3-[4-(5-isopropyl-2-methyl-1,3-thiazol-4-yl)phenoxy]propoxy}-benzamidine]
% number of osteoclast (vs. solvent control group) [1]: 34 ± 5.0^ab %
% number of osteoclast (vs. solvent control group) [2]: 27 ± 4.8^ac %
activity at 0.1 µM: 48 ± 4.4%

CC(C)c1nc(-c2ccc(OCCCCCOc3ccc(C(=N)NO)cc3)cc2)c(CCNCCCn2ccnc2)s1 [Compound 244, N-hydroxy-4-[5-(4-{5-[2-(3-imidazol-1-yl-propylamino)-ethyl]-2-isopropyl-thiazol-4-yl}-phenoxy)-pentyloxy]-benzamidine]
% number of osteoclast (vs. solvent control group) [1]: 19 ± 3.3^ab %
% number of osteoclast (vs. solvent control group) [2]: 11 ± 1.7^ac %
activity at 0.1 µM: 46 ± 2.9%

CC(C)c1nc(-c2ccc(OCCCCCOc3ccc(C(=N)NO)cc3)cc2)c(CCn2ccnc2)s1 [Compound 242, N-hydroxy-4-(5-{4-[5-(2-imidazol-1-yl-ethyl)-2-isopropyl-thiazol-4-yl]-phenoxy}-pentyloxy)-benzamidine]
% number of osteoclast (vs. solvent control group) [1]: 18 ± 3.5^ab %
% number of osteoclast (vs. solvent control group) [2]: 13 ± 2.8^ac %
activity at 0.1 µM: 58 ± 3.4%

N=C(NO)c1ccc(OCCCCCOc2ccc(-c3nc(CN4CCCCC4)sc3CCN3CCOCC3)cc2)cc1 [Compound 276, N-hydroxy-4-(5-{4-[5-(2-morpholin-4-yl-ethyl)-2-piperidin-1-yl-methyl-thiazol-4-yl]-phenoxy}-pentyloxy)-benzamidine]
% number of osteoclast (vs. solvent control group) [1]: 21 ± 2.9^b %
% number of osteoclast (vs. solvent control group) [2]: 11 ± 3.1^c %
activity at 0.1 µM: 41 ± 12.1%
